Measurements from PubChem BioAssay (NCI).
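Growth conditions: 96-well plates. Treatment: test compound, 48 hours, 5 concentrations. Analysis: linear interpolation between bracketing concentrations; unreached endpoints set to highest concentration. At the GI50, growth is halved. Definition used: TGI = concentration required for complete inhibition of growth.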

Legend:
Test in all cases: DTP human tumour cell line panel, 48 h
OVCAR-4 ovarian = tested on: OVCAR-4 ovarian
SK-MEL-28 melanoma = tested on: SK-MEL-28 melanoma
NCI/ADR-RES ovarian = tested on: NCI/ADR-RES ovarian
NCI-H460 lung = tested on: NCI-H460 lung
KM12 colon = tested on: KM12 colon
SNB-75 CNS = tested on: SNB-75 CNS
A549 NSCLC = tested on: A549 NSCLC
SNB-19 CNS = tested on: SNB-19 CNS
SK-MEL-2 melanoma = tested on: SK-MEL-2 melanoma
CCRF-CEM leukemia = tested on: CCRF-CEM leukemia

SMILES | TGI (OVCAR-4 ovarian) [µM] | TGI (SK-MEL-28 melanoma) [µM] | TGI (NCI/ADR-RES ovarian) [µM] | TGI (NCI-H460 lung) [µM] | TGI (KM12 colon) [µM] | TGI (SNB-75 CNS) [µM] | TGI (A549 NSCLC) [µM] | TGI (SNB-19 CNS) [µM] | TGI (SK-MEL-2 melanoma) [µM] | TGI (CCRF-CEM leukemia) [µM] | GI50 (OVCAR-4 ovarian) [µM] | GI50 (SK-MEL-28 melanoma) [µM] | GI50 (NCI/ADR-RES ovarian) [µM] | GI50 (NCI-H460 lung) [µM] | GI50 (CCRF-CEM leukemia) [µM] | GI50 (KM12 colon) [µM] | GI50 (SNB-75 CNS) [µM] | GI50 (SNB-19 CNS) [µM] | GI50 (SK-MEL-2 melanoma) [µM]
O=c1[nH]c(-c2ccc(Cl)cc2)cc2ccsc12 | > 100 | > 100 | > 100 | > 100 | > 100 | 23.2 | > 100 | 7.71 | > 100 |  |  |  |  |  |  |  |  |  | 
CCOC(=O)C1=C(C)N(c2ccc(Cl)cc2)C2(O)C=CC(Nc3ccc(Cl)cc3)=C3C(=O)N(c4ccccc4)C(=O)C312 (configuration not stated) | 15.1 | 6.89 | 12.7 | 13.7 | 23.1 | 20.3 | > 100 | 52.3 | 10.5 | 8.39 |  |  |  |  |  |  |  |  | 
COc1cccc2c1C(=O)c1c(O)c3c(c(O)c1C2=O)CC(O)(C(C)=O)CC3O (configuration not stated) | 19.6 | 44.3 | 22.4 | 7.42 | 38.5 | 32.4 | 23.4 | 32.8 | 16.9 | 23.2 |  |  |  |  |  |  |  |  | 
CN1CCN(Cn2nc(-c3cc(F)c(Cl)cc3Cl)oc2=S)CC1 | > 100 | > 100 | > 100 | > 100 | > 100 | > 100 |  | > 100 | > 100 | > 100 | 30.9 | 28.6 | 83.6 | 41.2 | 33.4 | 42.7 | 53.3 | 35.2 | > 100
